Like-named read-outs stand apart in the source and are kept apart here.
Columns and labels:
[1] = test system: CatA and carboxylesterase (CES) 1; settings: cited from earlier work
CYP3A (intestinal) = settings: cited from earlier work
CYP1A2 = settings: caffeine; cited from earlier work
BCRP = settings: in vitro; cited from earlier work
[2] = test system: breast cancer resistance protein (BCRP); settings: in vitro; data on file; cited from earlier work
OATP1B3 [3] = settings: in vitro; data on file; cited from earlier work
[4] = cited from earlier work
[5] = format: in vivo, human; settings: data on file
cathepsin A = biological target: T1, cathepsin A (Homo sapiens, UniProt P10619); test: In vitro cathepsin A inhibition; format: biochemical; settings: data on file
T1 sequence (P10619 29-480): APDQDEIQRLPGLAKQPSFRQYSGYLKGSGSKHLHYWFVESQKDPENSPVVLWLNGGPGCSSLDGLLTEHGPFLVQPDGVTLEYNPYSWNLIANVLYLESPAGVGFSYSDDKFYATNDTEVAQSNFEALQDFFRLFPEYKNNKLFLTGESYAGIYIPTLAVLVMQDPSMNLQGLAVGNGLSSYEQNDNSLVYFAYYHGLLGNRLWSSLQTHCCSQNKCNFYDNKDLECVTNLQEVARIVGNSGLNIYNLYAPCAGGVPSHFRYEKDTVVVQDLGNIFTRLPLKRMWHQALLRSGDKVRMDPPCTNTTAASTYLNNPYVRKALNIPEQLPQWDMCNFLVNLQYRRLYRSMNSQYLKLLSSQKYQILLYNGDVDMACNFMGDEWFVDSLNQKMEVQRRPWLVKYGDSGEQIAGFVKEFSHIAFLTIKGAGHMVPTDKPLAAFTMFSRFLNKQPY

OATP1B1 [6] = settings: in vitro; cited from earlier work
MRP2 [7] = settings: in vitro; data on file; cited from earlier work
P-gp [8] = settings: in vitro; cited from earlier work
CYP2C8 = settings: in vitro; cited from earlier work
[9] = cited from earlier work; remark: listed apart in the source
OATP1B1 [10] = settings: in vitro; cited from earlier work; remark: listed apart in the source
CYP3A [11] = settings: in vitro; cited from earlier work
plasma proteins = settings: largely to albumin; cited from earlier work
P-gp [12] = settings: in vitro; data on file; cited from earlier work
CYP2A6 = settings: in vitro; cited from earlier work
CYP2D6 = settings: in vitro; cited from earlier work
CYP2C19 = settings: in vitro; cited from earlier work
MRP2 [13] = settings: in vitro; cited from earlier work
[14] = test system: bile salt export pump (BSEP); settings: in vitro; cited from earlier work
OATP1B3 [15] = settings: in vitro; cited from earlier work
[16] = biological target: T2, sodium taurocholate cotransporting polypeptide (NTCP) (Homo sapiens, UniProt Q14973); test: In vitro transporter inhibition; format: in vitro ADME; settings: data on file
T2 sequence (Q14973 1-349): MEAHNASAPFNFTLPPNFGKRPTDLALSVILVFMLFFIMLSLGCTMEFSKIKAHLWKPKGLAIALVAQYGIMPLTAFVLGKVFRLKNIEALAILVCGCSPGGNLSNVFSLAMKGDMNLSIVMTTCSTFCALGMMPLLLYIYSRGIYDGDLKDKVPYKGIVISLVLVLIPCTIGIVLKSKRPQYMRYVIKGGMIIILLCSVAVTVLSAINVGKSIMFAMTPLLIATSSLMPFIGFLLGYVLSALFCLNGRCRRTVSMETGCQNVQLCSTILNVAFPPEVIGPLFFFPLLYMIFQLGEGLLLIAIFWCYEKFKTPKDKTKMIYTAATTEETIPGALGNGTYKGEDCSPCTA

CYP3A [17] = settings: in vitro; cited from earlier work; remark: listed apart in the source
[18] = oral midazolam 0.075 mg/kg, simeprevir 150 mg, fed, 16 healthy subjects, least squares mean ratio (90 % CI)
[19] = vs subjects with normal renal function
[20] = interim analysis, simeprevir 150 mg once daily
[21] = interim analysis, simeprevir 150 mg once daily, vs historical data on simeprevir alone
[22] = simeprevir 150 mg once daily + erythromycin 500 mg three times daily, days 1–7, fed, 24 healthy subjects
[23] = simeprevir 200 mg once daily + ritonavir 100 mg twice daily, fed, 12 healthy male subjects

## CC(C)OC(=O)[C@H](C)N[P@](=O)(OC[C@H]1O[C@@H](n2ccc(=O)[nH]c2=O)[C@](C)(F)[C@@H]1O)Oc1ccccc1 [sofosbuvir]
[1]
  conversion to metabolite GS-331007: > 90%

## Cc1ncc2n1-c1ccc(Cl)cc1C(c1ccccc1F)=NC2 [Midazolam, midazolam]
CYP3A (intestinal); [18]
  AUClast ratio of probe with vs without simeprevir: 1.45 (1.35–1.57)
  Cmax ratio of probe with vs without simeprevir: 1.31 (1.19–1.45)
CYP3A (intestinal); oral midazolam
  increase in exposure with coadministration of simeprevir: 31%

## Cn1c(=O)c2c(ncn2C)n(C)c1=O [Caffeine, caffeine]
CYP1A2
  increase in exposure with coadministration of simeprevir: 12%

## COc1ccc2c(O[C@@H]3C[C@H]4C(=O)N[C@]5(C(=O)NS(=O)(=O)C6CC6)C[C@H]5/C=C\CCCCN(C)C(=O)[C@@H]4C3)cc(-c3nc(C(C)C)cs3)nc2c1C [simeprevir]
BCRP
  inhibition of BCRP: inhibitor
[2]
  substrate of BCRP: substrate
OATP1B3 [3]
  inhibition of OATP1B3: inhibitor
[4]; HCV-infected subjects (n = 6)
  mean terminal elimination half-life: approximately 41 h
[4]; high-fat/high-caloric breakfast
  increase in AUC with food: 61%
[4]; human, in vivo
  AUC in subjects infected with HCV relative to uninfected subjects: 2–3 times
[4]; non-HCV-infected subjects vs matched healthy controls
  increase in exposure in moderate hepatic impairment: approximately 2 fold
[4]; non-HCV-infected subjects
  increase in exposure in severe compared with moderate hepatic impairment: approximately 2 fold
[4]; normal-caloric breakfast
  increase in AUC with food: 69%
[4]; once-daily dosing
  time to steady state: 7 days
[4]; oral
  time of maximum plasma concentration (Cmax) postdose: 4 to 6 h
[4]; repeated doses between 75 mg and 200 mg daily
  dose proportionality of Cmax and AUC: more than dose proportionally
[4]; subjects without HCV infection
  mean terminal elimination half-life: 10 to 13 h
[4]; [19]
  increase in AUC24h in severe renal impairment: 62%
  increase in Cmax in severe renal impairment: 34%
[5]
  AUC24h of simeprevir, historical data in the absence of cyclosporine: 45,202 ng·h/mL
  Cmax of simeprevir, historical data in the absence of cyclosporine: 3235 ng/mL
[5]; day 14, simeprevir 150 mg once daily
  AUC24h of simeprevir in subjects receiving cyclosporine: 262,618 ng·h/mL
[5]; day 14, simeprevir 150 mg once daily, n = 9
  Cmax of simeprevir in subjects receiving cyclosporine: 15,321 ng/mL
[5]; [20]
  AUC24h of simeprevir in subjects receiving tacrolimus: 83,808 ng·h/mL
  Cmax of simeprevir in subjects receiving tacrolimus: 5780 ng/mL
[5]; [21]
  increase in AUC24h of simeprevir with tacrolimus: 85%
  increase in Cmax of simeprevir with tacrolimus: 79%
Cathepsin A
  inhibition of cathepsin A: no clinically relevant inhibition
OATP1B1 [6]
  hepatic uptake by OATP1B1: mediate hepatic uptake
MRP2 [7]
  substrate of MRP2: substrate
P-gp [8]
  inhibition of P-gp: inhibitor
CYP2C8
  inhibition of CYP2C8: moderate inhibitor
[9]; [22]
  fold increase in mean AUC24h of simeprevir with erythromycin: 7.47 fold
  fold increase in mean Cmax of simeprevir with erythromycin: 4.53 fold
  fold increase in mean Cmin of simeprevir with erythromycin: 12.74 fold
[9]; [23]
  fold increase in AUC24h of simeprevir with ritonavir, multiple doses: 7.18 fold
  fold increase in Cmax of simeprevir with ritonavir, multiple doses: 4.70 fold
  fold increase in Cmin of simeprevir with ritonavir, multiple doses: 14.35 fold
OATP1B1 [10]
  inhibition of OATP1B1: inhibitor
CYP3A [11]
  substrate of CYP3A: substrate
Plasma proteins
  bound to plasma proteins: > 99.9%
P-gp [12]
  substrate of P-gp: substrate
CYP2A6
  inhibition of CYP2A6: moderate inhibitor
CYP2D6
  inhibition of CYP2D6: moderate inhibitor
CYP2C19
  inhibition of CYP2C19: weak inhibitor
MRP2 [13]
  inhibition of MRP2: inhibitor
[14]
  inhibition of BSEP: inhibitor
OATP1B3 [15]
  hepatic uptake by OATP1B3: mediate hepatic uptake
[16]
  inhibition of NTCP: inhibitor
CYP3A [17]
  inhibition of CYP3A: weak inhibitor

Source: article PMC4756048 (Clinical Pharmacokinetics, 2015)
